Patent US7595156B2 (priority 2003, dated 2009)

Key:
[1] = test system: mosquito larva; details: background statement, Liang and Zhou 1987; cited from earlier work
[2] = background statement, Liang and Zhou 1987; cited from earlier work
[3] = test system: Saccharomyces cerevisiae; test: Antifungal activity test, growth inhibition zones; assay type: cell-based; details: activity of the CS101 and CS102 culture mediums attributed to the variants produced in the mutant strains; FIG. 7
Procedure: FR-008 mutant strains CS101 and CS102 were added (see, FIG. 7). In FIG. 7, the left turbid zone is a zone added with Streptomyces sp. FR-008, the middle is a zone added with the mutant strain CS101, and the right is a zone added with the mutant strain CS102. […] This is caused by the polyketide variants V, VI, VIII, IX, X, XI and XII, which are produced in the mutant strains.

## C[C@H](C[C@H](C)[C@@H]1OC(=O)CC(=O)CCCC(=O)C[C@@H](O)C[C@@H](O)C[C@@H](O)C[C@]2(O)C[C@H](O)[C@H](C(=O)O)[C@H](C[C@H](O[C@@H]3O[C@@H](C)[C@H](O)[C@@H](N)[C@H]3O)/C=C/C=C/C=C/C=C/C=C/C=C/C=C/[C@@H]1C)O2)[C@H](O)CC(=O)c1ccc(N)cc1 [FR-008 polyketide]
[1]
  toxicity against mosquito larva: high toxicity
[2]
  antifungal activity: antifungal activity

## C[C@H](C[C@H](C)[C@@H]1OC(=O)CC(=O)CCCC(=O)CCC[C@@H](O)C[C@@H](O)CC(=O)C[C@H](O)[C@H](C(=O)O)[C@@H](O)C[C@H](O[C@@H]2O[C@@H](C)[C@H](O)C(=O)[C@H]2O)/C=C/C=C/C=C/C=C/C=C/C=C/C=C/[C@@H]1C)[C@H](O)CC(=O)c1ccc(N)cc1 [polyketide XII]
[3]
  antifungal activity of polyketide variants: antifungal activity
